pIC50: −log10 of the molar value.
The compounds below were run against T1, human Glucose-dependent Insulinotropic Polypeptide Receptor (hGIPR) (Homo sapiens, UniProt P48546) (assay: Functional in vitro GIPR antagonist potency assay (cAMP HTRF, CHO-K1 cells stably expressing hGIPR, hGIP stimulation at about EC80)). Conditions: geometric mean, hGIP at estimated EC80, examples marked ^2: overall geometric mean of multiple forms (including salts) tested.
T1 sequence (P48546 22-466): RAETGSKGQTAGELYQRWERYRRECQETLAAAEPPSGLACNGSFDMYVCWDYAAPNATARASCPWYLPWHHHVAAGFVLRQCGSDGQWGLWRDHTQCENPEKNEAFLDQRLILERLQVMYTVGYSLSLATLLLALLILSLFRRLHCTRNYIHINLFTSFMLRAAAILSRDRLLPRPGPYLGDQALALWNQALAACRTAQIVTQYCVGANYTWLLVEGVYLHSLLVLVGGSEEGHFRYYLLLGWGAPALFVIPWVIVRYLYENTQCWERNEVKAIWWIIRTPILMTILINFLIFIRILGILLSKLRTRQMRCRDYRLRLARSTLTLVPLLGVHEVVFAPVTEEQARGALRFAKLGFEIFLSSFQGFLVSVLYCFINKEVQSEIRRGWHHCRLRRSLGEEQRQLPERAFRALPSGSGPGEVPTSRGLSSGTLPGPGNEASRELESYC
Assay type: cell-based
Outline: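 HTRF quantification of cAMP after stimulation with hGIP at an estimated EC80 for 30 min at 37 °C. Before stimulation, hGIPR-expressing CHO-K1 cells were exposed 2 h to test compound in IBMX-containing buffer, with 0.5% DMSO final. Percent effect is referenced to agonist alone (0%) and to 80 μM of a reference antagonist (100%), and runs required the agonist concentration to fall within the on-the-day EC50–EC90.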

pIC50	SMILES
8.18	O=C(O)c1ccc(-c2ccc(NC(=O)[C@H]3CCCN3C(=O)NCc3ccc(C(F)(F)F)c(F)c3)cc2)cc1 [Example 126, 4′-{[1-({[3-fluoro-4-(trifluoromethyl)phenyl]methyl}carbamoyl)-D-prolyl]amino}[1,1′-biphenyl]-4-carboxylic acid]
7.31	CC(C)c1ccc(NC(=O)N2CCC[C@@H]2C(=O)Nc2ccc(-c3cc(F)c(C(=O)O)cc3Cl)cc2)cc1 [Example 70, 2-chloro-5-fluoro-4′-[(1-{[4-(propan-2-yl)phenyl]carbamoyl}-D-prolyl)amino][1,1′-biphenyl]-4-carboxylic acid]
7.40	COc1cc(-c2ccc(NC(=O)[C@H]3CCCN3C(=O)Nc3ccc(C(F)(F)F)cc3)cc2)ccc1C(=O)O [Example 170, 3-methoxy-4′-[(1-{[4-(trifluoromethyl)phenyl]carbamoyl}-D-prolyl)amino][1,1′-biphenyl]-4-carboxylic acid]
6.16	Cc1nc(NC(=O)N2CCC[C@@H]2C(=O)Nc2ccc(-c3ccc(C(=O)O)cc3)cc2)ccc1C(C)C [Example 102, 4′-[(1-{[6-methyl-5-(propan-2-yl)pyridin-2-yl]carbamoyl}-D-prolyl)amino][1,1′-biphenyl]-4-carboxylic acid]
7.64	CC(C)c1ccc(NC(=O)N2CCC[C@@H]2C(=O)Nc2ccc(-c3c(F)cc(C(=O)O)cc3F)cc2)cc1 [Example 48, 2,6-difluoro-4′-[(1-{[4-(propan-2-yl)phenyl]carbamoyl}-D-prolyl)amino][1,1′-biphenyl]-4-carboxylic acid]
7.80	CC(C)c1ccc(NC(=O)N2CCC[C@@H]2C(=O)Nc2ccc(-c3cccc(C(=O)O)c3)cn2)cc1 [Example 77, 3-{6-[(1-{[4-(propan-2-yl)phenyl]carbamoyl}-D-prolyl)amino]pyridin-3-yl}benzoic acid]
7.85	Cc1cc(-c2ccc(NC(=O)[C@H]3CCCN3C(=O)NCc3ccc(C(C)C)cc3)nc2)ccc1C(=O)O [Example 191, 2-methyl-4-(6-{[1-{{[4-(propan-2-yl)phenyl]methyl}carbamoyl)-D-prolyl]amino}pyridin-3-yl)benzoic acid]
8.20	CC(C)c1ccc(NC(=O)N2CCC[C@@H]2C(=O)Nc2cnc(-c3ccc(C(=O)O)cc3)c(F)c2)cc1 [Example 33, 4-{3-Fluoro-5-[(1-{[4-(propan-2-yl)phenyl]carbamoyl}-D-prolyl)amino]pyridin-2-yl}benzoic acid]
6.85	CC(C)c1ccc(NC(=O)N2CCC[C@@H]2C(=O)Nc2ccc(-c3ccc(O)c(F)c3)cc2)cc1 [Example 54, (2R)-N^2-(3′-fluoro-4′-hydroxy[1,1′-biphenyl]-4-yl)-N^1-[4-(propan-2-yl)phenyl]pyrrolidine-1,2-dicarboxamide]
7.92	O=C(O)c1ccc(-c2ccc(NC(=O)[C@H]3CCCN3C(=O)Nc3ccc(Cl)cc3)cc2)cc1 [Example 13, ammonium 4′-({1-[(4-chlorophenyl)carbamoyl]-D-prolyl}amino)[1,1′-biphenyl]-4-carboxylate]
8.54	CC(C)c1ccc(NC(=O)N2C[C@H]3C[C@H]3[C@@H]2C(=O)Nc2ccc(-c3ccc(C(=O)O)cc3)cc2)cc1 [Example 104, 4′-{[(1R,2R,5S)-3-{[4-(propan-2-yl)phenyl]carbamoyl}-3-azabicyclo[3.1.0]hexane-2-carbonyl]amino}[1,1′-biphenyl]-4-carboxylic acid]
7.85	CC(C)c1ccc(NC(=O)N2CCC[C@@H]2C(=O)Nc2ccc(-c3ccc(C(=O)O)cc3C(F)(F)F)cc2)cc1 [Example 49, 4′-[(1-{[4-(propan-2-yl)phenyl]carbamoyl}-D-prolyl)amino]-2-(trifluoromethyl)[1,1′-biphenyl]-4-carboxylic acid]
6.72	Cc1ccc(C(=O)O)cc1-c1ccc(NC(=O)[C@H]2CCCN2C(=O)Nc2ccc(C(C)C)cc2)cc1 [Example 94, 6-methyl-4′-[(1-{[4-(propan-2-yl)phenyl]carbamoyl}-D-prolyl)amino][1,1′-biphenyl]-3-carboxylic acid]

From US20240366598A1, “GLUCOSE-DEPENDENT INSULINOTROPIC POLYPEPTIDE RECEPTOR ANTAGONISTS AND USES THEREOF” (Pfizer Inc., priority 2023, published 2024)
